Type in all cases: biochemical
Holding throughout (settings): procedures of Example 14 (TR-FRET)
In general terms: TR-FRET usually uses a lanthanide donor and a delayed reading to cut background.

One assay deals with JNK1 (Homo sapiens (Human), UniProt P45983). As to the kind of experiment: JNK1 TR-FRET kinase assay (Example 14). The essentials: (§1)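 Two TR-FRET formats were used for each JNK isoform. In the direct one, preactivated aJNK phosphorylated EPIW-1 at about 1 mM final ATP (RT, 15 min). Both were EDTA-quenched and read by HTRF.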
A further assay concerns the target JNK2 (Homo sapiens (Human), UniProt P45984). As to the kind of experiment: JNK2 TR-FRET kinase assay (Example 14). The essentials: as §1
A further assay concerns the target JNK3 (Homo sapiens (Human), UniProt P53779). As to the kind of experiment: JNK3 TR-FRET kinase assay (Example 14). The essentials:
as §1

pIC50: −log10 of the molar value. Where only a bound is given, the exact number is not on record here.

Sequence of JNK3 (P53779 whole entry, species assumed): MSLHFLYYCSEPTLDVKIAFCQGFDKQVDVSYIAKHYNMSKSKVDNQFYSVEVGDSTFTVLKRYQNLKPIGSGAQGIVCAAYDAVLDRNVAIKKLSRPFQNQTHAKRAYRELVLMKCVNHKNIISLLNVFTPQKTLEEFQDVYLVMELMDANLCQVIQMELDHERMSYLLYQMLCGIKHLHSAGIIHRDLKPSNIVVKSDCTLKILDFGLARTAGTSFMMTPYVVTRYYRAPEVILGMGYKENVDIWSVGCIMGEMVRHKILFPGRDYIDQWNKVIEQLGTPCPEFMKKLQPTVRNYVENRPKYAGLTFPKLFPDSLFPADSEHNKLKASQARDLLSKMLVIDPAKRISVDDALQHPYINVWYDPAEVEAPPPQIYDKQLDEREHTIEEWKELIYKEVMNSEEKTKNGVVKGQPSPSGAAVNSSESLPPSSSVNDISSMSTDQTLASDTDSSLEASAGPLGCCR
Sequence of JNK2 (P45984 whole entry, species assumed): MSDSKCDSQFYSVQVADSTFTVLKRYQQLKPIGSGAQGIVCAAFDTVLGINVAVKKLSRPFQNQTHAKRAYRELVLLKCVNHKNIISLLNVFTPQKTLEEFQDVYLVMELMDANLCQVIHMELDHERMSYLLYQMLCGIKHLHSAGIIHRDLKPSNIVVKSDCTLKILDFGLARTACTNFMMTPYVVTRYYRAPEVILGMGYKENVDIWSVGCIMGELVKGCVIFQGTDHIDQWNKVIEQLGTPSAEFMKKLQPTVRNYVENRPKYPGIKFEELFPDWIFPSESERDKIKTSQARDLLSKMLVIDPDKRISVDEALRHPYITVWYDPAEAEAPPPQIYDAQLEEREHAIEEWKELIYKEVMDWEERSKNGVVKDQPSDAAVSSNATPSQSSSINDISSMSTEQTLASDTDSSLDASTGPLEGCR
Sequence of JNK1 (P45983 other isoform, or with tags, fused parts or gaps isoform P45983-2, species assumed): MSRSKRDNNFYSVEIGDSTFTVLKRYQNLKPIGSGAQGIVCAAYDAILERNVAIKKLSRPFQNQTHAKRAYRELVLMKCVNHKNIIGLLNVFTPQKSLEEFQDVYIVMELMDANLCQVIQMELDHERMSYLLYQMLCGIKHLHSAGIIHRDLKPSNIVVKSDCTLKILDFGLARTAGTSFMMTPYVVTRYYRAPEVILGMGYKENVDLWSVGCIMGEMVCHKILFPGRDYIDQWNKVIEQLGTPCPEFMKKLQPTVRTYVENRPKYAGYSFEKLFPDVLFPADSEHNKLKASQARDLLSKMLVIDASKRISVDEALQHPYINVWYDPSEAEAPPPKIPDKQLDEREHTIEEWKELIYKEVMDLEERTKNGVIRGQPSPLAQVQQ

What is called pIC50 is −log10 of the IC50, conventionally taken in molar units. For `N#Cc1csc(NC(=O)Cn2c(=O)ccc3cc(C(F)(F)F)ccc32)c1-n1ccnn1` [N-(4-cyano-3-(1H-1,2,3-triazol-1-yl)thiophen-2-yl)-2-(2-oxo-6-(trifluoromethyl)quinolin-1(2H)-yl)acetamide], the pIC50 against JNK1, against JNK2 and against JNK3 was 5.00 to 7.00 throughout.

Consider `Cc1n[nH]c(-c2c(C)csc2NC(=O)Cc2cccc3nccnc23)n1` [N-(4-methyl-3-(3-methyl-1H-1,2,4-triazol-5-yl)thiophen-2-yl)-2-(quinoxalin-5-yl)acetamide], for which the pIC50 against JNK1, at JNK2 and against JNK3 was 5.00 to 7.00 each time.

`Cn1cnc(-c2c(Cl)csc2NC(=O)Cn2c(=O)ccn3nc(C(F)(F)F)cc23)n1` [N-(4-chloro-3-(1-methyl-1H-1,2,4-triazol-3-yl)thiophen-2-yl)-2-(5-oxo-2-(trifluoromethyl)pyrazolo[1,5-a]pyrimidin-4(5H)-yl)acetamide]: the negative logarithm of the IC50 (pIC50) on JNK1, against JNK2 and on JNK3 was more than 7.00 in each case.

With `COc1ccc(CC(=O)Nc2ccsc2-c2nc(-c3ccncc3)n[nH]2)cc1` [2-(4-methoxyphenyl)-N-(2-(3-(pyridin-4-yl)-1H-1,2,4-triazol-5-yl)thiophen-3-yl)acetamide], the values for the pIC50 against JNK1, at JNK2 and on JNK3 were 5.00 to 7.00, less than 4.30 and less than 5.00, respectively.

As to `O=C(CN1C(=O)CCc2ncccc21)Nc1scc(Cl)c1-c1nc[nH]n1` [N-(4-chloro-3-(1H-1,2,4-triazol-3-yl)thiophen-2-yl)-2-(2-oxo-3,4-dihydro-1,5-naphthyridin-1(2H)-yl)acetamide], the pIC50 on JNK1, against JNK2 and on JNK3 was more than 7.00 each time.

For the molecule `O=C(Cn1c(=O)ccc2ccc(F)cc21)Nc1scc(Br)c1-c1ncn[nH]1` [N-(4-bromo-3-(1H-1,2,4-triazol-5-yl)thiophen-2-yl)-2-(7-fluoro-2-oxoquinolin-1(2H)-yl)acetamide], the negative logarithm of the IC50 (pIC50) on JNK1, against JNK2 and against JNK3 was more than 7.00 in each case.

`COc1ccc(CC(=O)Nc2ccsc2N2CCOC2=O)cc1` [2-(4-methoxyphenyl)-N-(2-(2-oxooxazolidin-3-yl)thiophen-3-yl)acetamide]: the values for the pIC50 against JNK1, on JNK2 and at JNK3 were less than 4.30, less than 4.30 and less than 5.00, respectively.

As for `N#Cc1csc(NC(=O)CN2C(=O)CCc3ncccc32)c1-c1nc[nH]n1` [N-(4-cyano-3-(1H-1,2,4-triazol-3-yl)thiophen-2-yl)-2-(2-oxo-3,4-dihydro-1,5-naphthyridin-1(2H)-yl)acetamide], the negative-log IC50 (pIC50) on JNK1, at JNK2 and against JNK3 was more than 7.00 throughout.

On to `O=C(CN1C(=O)CCc2ccccc21)Nc1ccsc1-c1c[nH]cn1` [N-(2-(1H-imidazol-4-yl)thiophen-3-yl)-2-(2-oxo-3,4-dihydroquinolin-1(2H)-yl)acetamide], for which the pIC50 at JNK1 was 5.00 to 7.00; at JNK2 it was less than 5.00; against JNK3, 5.00 to 7.00.

Regarding `O=C(Cn1c(=O)ccc2cc(C(F)(F)F)ccc21)Nc1scc(Cl)c1-c1ncn[nH]1` [N-(4-chloro-3-(1H-1,2,4-triazol-5-yl)thiophen-2-yl)-2-(2-oxo-6-(trifluoromethyl)quinolin-1(2H)-yl)acetamide], the negative-log IC50 (pIC50) on JNK1, at JNK2 and at JNK3 was more than 7.00 each time.

Consider `O=C(Cn1c(=O)ccn2nccc12)Nc1scc(Br)c1-c1ncn[nH]1` [N-(4-bromo-3-(1H-1,2,4-triazol-5-yl)thiophen-2-yl)-2-(5-oxopyrazolo[1,5-a]pyrimidin-4(5H)-yl)acetamide], for which the negative logarithm of the IC50 (pIC50) at JNK1, against JNK2 and on JNK3 was more than 7.00 each time.

Consider `O=C(CN1C(=O)CCc2ccccc21)Nc1sccc1-c1ncn[nH]1` [N-(3-(1H-1,2,4-triazol-5-yl)thiophen-2-yl)-2-(2-oxo-3,4-dihydroquinolin-1(2H)-yl)acetamide], for which the pIC50 was more than 7.00 against JNK1, 5.00 to 7.00 at JNK2 and 5.00 to 7.00 on JNK3.

Take `O=C(Cn1c(=O)ccc2cnc(C(F)(F)F)cc21)Nc1scc(Cl)c1-c1nc[nH]n1` [N-(4-chloro-3-(1H-1,2,4-triazol-3-yl)thiophen-2-yl)-2-(2-oxo-7-(trifluoromethyl)-1,6-naphthyridin-1(2H)-yl)acetamide]: the negative logarithm of the IC50 (pIC50) against JNK1, against JNK2 and against JNK3 was more than 7.00 in each case.

With `N#Cc1csc(NC(=O)Cc2cccc3ncccc23)c1-c1nnc[nH]1` [N-(4-cyano-3-(4H-1,2,4-triazol-3-yl)thiophen-2-yl)-2-(quinolin-5-yl)acetamide], the pIC50 against JNK1, at JNK2 and against JNK3 was more than 7.00 throughout.

For the molecule `Cc1nc(-c2sccc2NC(=O)Cc2cccc3ccccc23)n(C)n1` [N-(2-(1,3-dimethyl-1H-1,2,4-triazol-5-yl)thiophen-3-yl)-2-(naphthalen-1-yl)acetamide], the figures for the negative-log IC50 (pIC50) at JNK1, at JNK2 and against JNK3 were less than 5.00, less than 4.30 and less than 5.00, respectively.

Regarding `O=C(Cc1cccc2cc(F)cnc12)Nc1scc(Br)c1-c1nc[nH]n1` [N-(4-bromo-3-(1H-1,2,4-triazol-3-yl)thiophen-2-yl)-2-(3-fluoroquinolin-8-yl)acetamide], the negative logarithm of the IC50 (pIC50) at JNK1 is more than 7.00; at JNK2, 5.00 to 7.00; on JNK3, 5.00 to 7.00.

With `N#Cc1csc(NC(=O)Cn2c(=O)ccc3cc(C(F)(F)F)ccc32)c1-c1cscn1` [N-(4-cyano-3-(thiazol-4-yl)thiophen-2-yl)-2-(2-oxo-6-(trifluoromethyl)quinolin-1(2H)-yl)acetamide], the negative logarithm of the IC50 (pIC50) against JNK1, against JNK2 and against JNK3 was more than 7.00 throughout.

On to `COc1ccc(CC(=O)Nc2ccsc2-n2nccn2)cc1` [N-(2-(2H-1,2,3-triazol-2-yl)thiophen-3-yl)-2-(4-methoxyphenyl)acetamide], for which the pIC50 at JNK1, against JNK2 and against JNK3 was 5.00 to 7.00 in each case.

As to `Cc1n[nH]c(-c2sccc2NC(=O)Cc2cccc3ccccc23)n1` [N-(2-(3-methyl-1H-1,2,4-triazol-5-yl)thiophen-3-yl)-2-(naphthalen-1-yl)acetamide], the negative-log IC50 (pIC50) on JNK1, against JNK2 and at JNK3 was 5.00 to 7.00 throughout.

Turning to `Cn1cnc(-c2c(Cl)csc2NC(=O)Cn2c(=O)ccn3nccc23)n1` [N-(4-chloro-3-(1-methyl-1H-1,2,4-triazol-3-yl)thiophen-2-yl)-2-(5-oxopyrazolo[1,5-a]pyrimidin-4(5H)-yl)acetamide], the pIC50 against JNK1, on JNK2 and on JNK3 was more than 7.00 throughout.

`O=C(Cn1c(=O)ccc2ccc(OC(F)(F)F)cc21)Nc1scc(Br)c1-c1ncn[nH]1` [N-(4-bromo-3-(1H-1,2,4-triazol-5-yl)thiophen-2-yl)-2-(2-oxo-7-(trifluoromethoxy)quinolin-1(2H)-yl)acetamide]: the negative logarithm of the IC50 (pIC50) against JNK1, at JNK2 and on JNK3 was more than 7.00 throughout.

`O=C(Cn1c(=O)ccc2cc(F)ccc21)Nc1scc(Br)c1-c1ncn[nH]1` [N-(4-bromo-3-(1H-1,2,4-triazol-5-yl)thiophen-2-yl)-2-(6-fluoro-2-oxoquinolin-1(2H)-yl)acetamide]: the pIC50 at JNK1, against JNK2 and on JNK3 was more than 7.00 in each case.

These data come from patent US9796706B2, “Inhibitors of Jun N-terminal kinase” (IMAGO PHARMACEUTICALS, INC., priority 2009, dated 2017).
